Data taken from paper PMC12251305 (Molecules, 2025).

Tests used:
[1] = Metabolic stability in rat liver microsomes; type: in vitro ADME
Description: In vitro metabolism of 22b (1 µM) was studied using Sprague Dawley rat liver microsomes (RLM) in a bench-top shaker for 1 h at 37 ± 0.5 °C. An aliquot (2 μL) of the stock solution (250 µM) was spiked in 0.5 mL of pre-incubated metabolic reaction mixture [50 mM Tris buffer (pH 7.4), 0.5 mg protein/mL of RLM, 20 mM magnesium chloride, and 2 mM NADPH]. Verapamil was used as the positive control to ensure the activity of the liver microsomal enzymes, and a metabolic reaction mixture without NADPH was used as the negative control in the same incubation conditions. An aliquot (40 µL) of the reaction mixture was withdrawn at 0, 5, 10, 15, 30, 45, and 60 min and quenched with 200 µL of ice-cold methanol. Samples were vortex-mixed for 2 min, followed by filtration (Multiscreen, Merck Millipore, Ireland) under vacuum. The filtrate was injected onto a UPLC-MS/MS system.
The hepatic elimination rate constant (k) was calculated directly from the slope of the natural logarithm (percent drug remaining) of the concentration vs. the time profile. In vitro half-life (t1/2), intrinsic clearance (CLint), and hepatic clearance (CLint,h) can be calculated from the equations reported in Figure S3 of the Supporting Information, where [V] is the incubation volume in mL and [P] is the amount of microsomal protein in the incubation mixture.

C57BL/6J mice [2] = experiment: Excreta assay (intestinal transit); details: 90 min
C57BL/6J mice [3] = experiment: Antinociception assay (55 °C warm water tail withdrawal assay); type: in vivo, mouse
hNPFF2-R [4] = molecular target: T1, hNPFF2-R (Homo sapiens, UniProt Q9Y5X5); experiment: Radioligand competition binding at NPFF2-R; details: [3H]EYF, transfected CHO cell membranes; read-out: Receptor Binding, Ki ± SEM NPFF2-R
T1 construct: expressed in transfected cells; host or cells: CHO cells (membranes)

KOR [5] = molecular target: T2, KOR (Homo sapiens, UniProt P41145); experiment: [35S]GTPγS functional assay (agonist mode) at KOR; type: biochemical; details: [35S]GTPγS KOR EC50 ± SEM, agonist mode, standard U-69,593
DOR [6] = molecular target: T3, DOR (Homo sapiens, UniProt P41143); experiment: Radioligand competition binding at DOR; details: read-out: Receptor Binding, Ki ± SEM DOR
KOR [7] = molecular target: T2, KOR; experiment: biochemical; type: binding
MOR [8] = molecular target: T4, MOR (Homo sapiens, UniProt P35372); experiment: Radioligand competition binding at MOR
C57BL/6J mice [9] = experiment: Respiration testing (CLAMS); type: in vivo, mouse; details: 90 min
C57BL/6J mice [10] = experiment: Anti-hyperalgesia assay (48 °C warm water tail withdrawal assay, NPFF-induced hyperalgesia); type: in vivo, mouse
C57BL/6J mice [11] = experiment: Locomotor testing (CLAMS); type: in vivo, mouse; details: 100 nmol i.c.v., 90 min
[12] = In vivo pharmacokinetic study, intravenous; design: species or system Sprague Dawley rats; details: 5 mg/kg i.v., rat, mean (n = 6) ± SEM
Description: In vivo pharmacokinetic study. For the evaluation of the in vivo pharmacokinetic parameters of 22b, a pharmacokinetic study was performed in healthy male adult Sprague Dawley rats with in-dwelling jugular catheters weighing 225 ± 25 g. The animals were housed in single occupancy metabolic cages with mesh flooring and urine and feces receptacles. Six animals were dosed with 5 mg/kg intravenously, and the blood samples were collected at the following time points: pre-dose, 0.083, 0.17, 0.33, 0.50, 0.75, 1, 2, 4, 6, 8, and 10 h post-dose. All samples were stored at −80 °C until they were further analyzed. Collected plasma samples were analyzed using a validated UPLC-MS/MS method, and non-compartmental analysis of the plasma concentration data was performed using Phoenix® 6.4.
Bioanalytical method development and validation. A sensitive, accurate, and robust quantitative liquid chromatography tandem mass spectrometry (LC-MS/MS, Waters Corporation, Milford, MA, USA) method was developed and validated according to the FDA guidelines. Separation was achieved using a Waters Acquity I-Class liquid chromatography system equipped with a binary pump, a degasser, a temperature-controlled autosampler, and a column oven. The analyte was separated via gradient elution utilizing LC-MS grade water and methanol acidified with 0.02% trifluoroacetic acid (TFA, % v/v) through a 2.1 × 50 mm ACQUITY UPLC® CSH C18 column with 1.7 μm particle size (PN 186005296, SN 01463729915172). Mass detection was achieved via Waters Xevo TQS Micro triple quadrupole mass spectrometer in positive electrospray ionization (ESI^+) mode with the multiple reaction monitoring (MRM) function. The method was validated in rat plasma for the linearity range of 1–200 ng/mL. The gradient schematic and fragmentation monitoring parameters are reported in Tables S2 and S3 of the Supporting Information.

C57BL/6J mice [13] = experiment: Acute antinociceptive tolerance assay (55 °C warm water tail withdrawal); type: in vivo, mouse; details: i.c.v.
hNPFF1-R [14] = molecular target: T5, hNPFF1-R (Homo sapiens, UniProt Q9GZQ6); experiment: Radioligand competition binding at NPFF1-R; details: read-out: Receptor Binding, Ki ± SEM NPFF1-R
T5 construct: expressed in transfected cells; host or cells: CHO cells

MOR [15] = molecular target: T4, MOR; experiment: [35S]GTPγS functional assay (agonist mode) at MOR; type: biochemical; details: [35S]GTPγS MOR EC50 ± SEM
DOR [16] = molecular target: T3, DOR; experiment: [35S]GTPγS functional assay (agonist mode) at DOR; type: biochemical; details: [35S]GTPγS DOR EC50 ± SEM, agonist mode, standard DPDPE
NPFF1-R = details: read-out: NPFF1-R Ki; Figure 1; ref [29]; cited from earlier work
hNPFF2-R [17] = molecular target: T1, hNPFF2-R; design: method as in earlier work; details: inhibition of cAMP production induced by 2 μM forskolin; ref (46); read-out: Functional Activity hNPFF2-R EC50; cited from earlier work
hNPFF1-R [18] = molecular target: T5, hNPFF1-R; details: inhibition of cAMP production induced by 2 μM forskolin; ref (46); read-out: Functional Activity hNPFF1-R EC50; cited from earlier work
[19] = male, Sprague Dawley, plasma, iv

T1 sequence (Q9Y5X5 whole entry): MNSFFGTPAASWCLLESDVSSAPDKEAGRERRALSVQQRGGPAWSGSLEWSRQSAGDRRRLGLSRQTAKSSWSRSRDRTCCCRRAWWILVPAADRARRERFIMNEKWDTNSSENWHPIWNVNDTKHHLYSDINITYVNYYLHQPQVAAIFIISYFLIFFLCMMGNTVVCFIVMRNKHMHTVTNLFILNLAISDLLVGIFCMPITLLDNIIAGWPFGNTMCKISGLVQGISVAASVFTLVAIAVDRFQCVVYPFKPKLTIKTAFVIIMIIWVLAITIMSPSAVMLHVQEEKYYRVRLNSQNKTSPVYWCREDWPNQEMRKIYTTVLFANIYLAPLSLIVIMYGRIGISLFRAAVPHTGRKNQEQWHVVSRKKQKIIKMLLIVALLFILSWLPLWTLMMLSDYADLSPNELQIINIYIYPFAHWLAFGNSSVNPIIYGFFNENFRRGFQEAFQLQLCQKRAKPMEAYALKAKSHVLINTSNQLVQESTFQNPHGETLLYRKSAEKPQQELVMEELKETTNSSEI
T3 sequence (P41143 whole entry): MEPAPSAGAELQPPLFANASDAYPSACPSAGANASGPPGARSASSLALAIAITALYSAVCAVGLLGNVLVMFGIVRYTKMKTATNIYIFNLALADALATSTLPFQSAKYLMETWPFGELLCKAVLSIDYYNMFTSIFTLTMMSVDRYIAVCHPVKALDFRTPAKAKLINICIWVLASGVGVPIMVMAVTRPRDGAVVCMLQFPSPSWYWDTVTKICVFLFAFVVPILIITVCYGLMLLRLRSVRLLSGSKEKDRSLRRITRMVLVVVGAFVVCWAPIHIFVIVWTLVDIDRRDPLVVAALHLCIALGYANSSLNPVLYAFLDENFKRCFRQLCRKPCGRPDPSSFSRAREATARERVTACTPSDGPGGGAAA
T5 sequence (Q9GZQ6 whole entry): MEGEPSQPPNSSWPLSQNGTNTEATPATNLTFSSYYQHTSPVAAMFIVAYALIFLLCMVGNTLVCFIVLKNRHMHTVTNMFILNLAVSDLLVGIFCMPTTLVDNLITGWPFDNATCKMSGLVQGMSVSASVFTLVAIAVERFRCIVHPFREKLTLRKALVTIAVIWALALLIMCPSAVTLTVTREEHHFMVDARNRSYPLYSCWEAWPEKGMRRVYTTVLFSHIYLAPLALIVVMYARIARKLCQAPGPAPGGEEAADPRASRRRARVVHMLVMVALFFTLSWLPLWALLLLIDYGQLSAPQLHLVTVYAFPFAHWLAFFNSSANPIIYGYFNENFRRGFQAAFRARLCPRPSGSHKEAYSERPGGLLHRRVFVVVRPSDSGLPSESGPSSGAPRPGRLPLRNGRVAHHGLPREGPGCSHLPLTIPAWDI
T2 sequence (P41145 whole entry): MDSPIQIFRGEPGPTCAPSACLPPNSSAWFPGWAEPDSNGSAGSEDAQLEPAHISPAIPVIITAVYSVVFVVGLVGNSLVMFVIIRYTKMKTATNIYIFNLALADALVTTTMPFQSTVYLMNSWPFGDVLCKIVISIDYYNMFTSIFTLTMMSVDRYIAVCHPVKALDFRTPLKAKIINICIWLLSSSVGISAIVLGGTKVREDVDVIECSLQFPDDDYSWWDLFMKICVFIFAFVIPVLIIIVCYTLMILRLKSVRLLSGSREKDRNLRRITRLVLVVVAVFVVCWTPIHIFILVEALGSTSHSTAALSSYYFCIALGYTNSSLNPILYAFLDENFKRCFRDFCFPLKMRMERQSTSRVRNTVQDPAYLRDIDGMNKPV
T4 sequence (P35372 whole entry): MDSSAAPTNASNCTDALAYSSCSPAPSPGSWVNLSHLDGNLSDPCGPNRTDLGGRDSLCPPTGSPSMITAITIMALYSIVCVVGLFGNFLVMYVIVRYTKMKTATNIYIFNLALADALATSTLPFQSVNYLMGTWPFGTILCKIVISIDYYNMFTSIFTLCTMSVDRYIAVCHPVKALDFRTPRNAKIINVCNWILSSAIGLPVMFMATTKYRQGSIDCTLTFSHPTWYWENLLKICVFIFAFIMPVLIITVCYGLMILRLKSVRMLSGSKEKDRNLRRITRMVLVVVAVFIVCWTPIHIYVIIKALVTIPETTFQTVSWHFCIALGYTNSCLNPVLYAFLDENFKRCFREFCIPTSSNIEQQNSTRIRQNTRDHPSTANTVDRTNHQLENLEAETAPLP

N=C(N)Nc1ccc(C(=C2CCN(Cc3ccccc3)CC2)c2ccccc2)cc1 [Compound 22b, 1-(4-((1-Benzylpiperidin-4-ylidene)(phenyl)methyl)phenyl)guanidine]
compound remained unchanged after 1 h of incubation ([1]; 1 µM, RLM, with NADPH): 25.5% | stability in negative control reaction mixture ([1]; RLM without NADPH): metabolism of the compound was also observed | half-life at 1 µM ([1]; Sprague Dawley, rat, liver microsomes, pH 7.4, 1 µM, RLM, read-out: in vitro half-life): 0.517 ± 0.0133 h | intrinsic clearance (CLint) ([1]; pooled rat liver microsomes): 0.045 ± 0.001 mL/min per milligram of microsomal protein | number of excreted fecal boli (C57BL/6J mice [2]; 30 nmol i.c.v.): 3.5 ± 0.7 boli | number of excreted fecal boli (C57BL/6J mice [2]; 100 nmol i.c.v.): 4.1 ± 0.6 boli | antinociceptive activity over time (screening) (C57BL/6J mice [3]; 30 nmol i.c.v., 55 °C): induced the greatest tail withdrawal latencies | antinociceptive response after pretreatment with DOR-selective antagonist naltrindole (C57BL/6J mice [3]; 22b 30 nmol i.c.v., naltrindole 20 mg/kg i.p. 20 min before, 40 min): did not alter the antinociceptive response | antinociceptive response after pretreatment with KOR-selective antagonist nor-BNI (C57BL/6J mice [3]; 22b 30 nmol i.c.v., nor-BNI 10 mg/kg i.p. 24 h before, 40 min): did not alter the antinociceptive response | antinociceptive activity after pretreatment with MOR-selective antagonist β-FNA (C57BL/6J mice [3]; 22b 30 nmol i.c.v., β-FNA 5 mg/kg s.c. 24 h before, 40 min): almost completely abolished | ED50 (C57BL/6J mice [3]; Mus musculus, ip, 10 min, i.p., 10 min after administration, 55 °C, read-out: antinociception ED50 (95% confidence interval)): 3.61 mg/kg | antinociception ED50 (95% confidence interval) (C57BL/6J mice [3]; i.c.v., 40 min after administration, 55 °C): 6.88 (4.71–9.47) nmol | duration of antinociceptive effect (C57BL/6J mice [3]; i.p. administration): no more than 50 min | Ki (hNPFF2-R [4]): 272 ± 1 nM | EC50 (KOR [5]): 2710 ± 398 nM | Ki (DOR [6]): 11.4 ± 4.3 nM | Ki (KOR [7]): 270 ± 43 nM | Ki (MOR [8]): 428 ± 33 nM | effect on respiration rate (C57BL/6J mice [9]; 30 nmol i.c.v.): no marked reduction in respiration | effect on respiration rate (C57BL/6J mice [9]; 100 nmol i.c.v.): increased respiration rate | prevention of NPFF-induced hyperalgesia (screening) (C57BL/6J mice [10]; 30 nmol i.c.v. two hours before NPFF 30 nmol i.c.v.): more moderate, yet still statistically significant, effect | prevention of NPFF-induced hyperalgesia after peripheral pretreatment (C57BL/6J mice [10]; 10 mg/kg i.p. pretreatment, NPFF 30 nmol i.c.v.): significant antagonism | effect on ambulation (spontaneous locomotor activity) (C57BL/6J mice [11]): not significantly greater than that of the vehicle | AUC/dose0_inf [12]: 3004.7 ± 108.1 ng·h/mL/mg | C0 [12, 19]: 9150 ± 3740 ng/mL | Vd [12, 19]: 2 ± 0.2 L | clearance [12, 19]: 5 mL/min | half-life [12, 19]: 4.1 ± 0.5 h | k el ([12]; male, Sprague Dawley, plasma, iv, read-out: k (elimination rate constant) (converted)): 5.56e-05 s⁻¹ | antinociception ED50 (95% CI), second administration (C57BL/6J mice [13]; given 8 h after a first dose (morphine 3 nmol, 22b 8.7 nmol), 55 °C): 10.8 (5.89–21.1) nmol | rightward shift of antinociceptive dose response (acute tolerance) (C57BL/6J mice [13]; second administration 8 h after first): 1.6 fold | Ki (hNPFF1-R [14]): 929 ± 183 nM | EC50 (MOR [15]): 576 ± 311 nM | EC50 (DOR [16]): 539 ± 93.2 nM

N=C(N)NCCNC(=O)C1(Nc2ccccc2)CCN(Cc2ccccc2)CC1 [compound 2]
Ki (NPFF1-R): 81 ± 17 nM

1DMe: high-affinity peptidic NPFF receptor ligand (YLFQPQRF)
EC50 (hNPFF2-R [17]): 2.7 ± 0.5 nM | EC50 (hNPFF1-R [18]): 71 ± 14 nM
